Source: patent US5407954A, “Arylalkoxyphenoxy-imidazoline compounds” (Merrell Dow Pharmaceuticals Inc., priority 1994, dated 1995)
pIC50: −log10 of the molar value.

How the values were obtained:
[1] = system: 5-HT1C receptor; conditions: albeit nonselective; cited from earlier work
[2] = system: migraine; conditions: in vivo; cited from earlier work
[3] = system: migraine headaches; conditions: in vivo; cited from earlier work
[4] = target: T1, cloned rat 5-HT2 receptor (Rattus norvegicus, UniProt P14842); experiment: Affinity for 5-HT2 receptors on transfected fibroblast cell membranes ([125I]LSD competition binding, NIH 3T3 GF-6 cells); conditions: NIH 3T3 GF-6 cell membranes, 37° C., 60 minutes, pH 7.6
T1 construct: expressed in transfected cells; host or cells: NIH 3T3 fibroblasts, line 'GF-6'
T1 sequence (P14842 whole entry): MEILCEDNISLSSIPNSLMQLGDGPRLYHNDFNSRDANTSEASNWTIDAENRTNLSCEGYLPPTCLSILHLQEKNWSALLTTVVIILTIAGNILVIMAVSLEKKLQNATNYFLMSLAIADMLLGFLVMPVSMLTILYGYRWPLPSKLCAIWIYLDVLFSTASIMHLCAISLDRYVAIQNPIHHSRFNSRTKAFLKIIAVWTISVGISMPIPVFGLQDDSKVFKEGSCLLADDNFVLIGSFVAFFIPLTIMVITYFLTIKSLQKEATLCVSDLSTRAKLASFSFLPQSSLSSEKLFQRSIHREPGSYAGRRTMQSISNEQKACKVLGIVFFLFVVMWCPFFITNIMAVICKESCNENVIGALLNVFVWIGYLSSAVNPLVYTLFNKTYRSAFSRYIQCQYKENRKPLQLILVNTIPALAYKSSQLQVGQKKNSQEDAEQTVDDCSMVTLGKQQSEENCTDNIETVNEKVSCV
Text: Affinity for 5-HT2 receptor on transfected fibroblast cell membranes (partial agonist [^125 I]lysergic acid diethylamide; Elliott, M. J., Kent, A., J. Neurochem. 53: 191-196, 1989.; Peroutka, S. J., Snyder, S. H. , Molec. Pharmacol. 16: 687-699, 1979; Kadan, J. M., Krohn, A. M., Evans, M. J., Ualtz, R. L., Hartig, P. R.; J. Neurochem. 43: 601-606, 1984) is used to determine the potency of test compounds to compete with [^125 I]LSD binding to a NIH 3T3 cell line containing the cloned rat 5-HT2 receptor designated "GF-6" by its originators.[Julius, D., Huang, K. N., Livelli, T. J., Axel, R., and Jessell, T. M., Proc. Natl. Acad. Sci. USA 87:928-932, 1990]
Confluent GF6 cell monolayers are dissociated in Versene and centrifuged at 1000 rpm for 5 minutes. The resulting pellet is homogenized in 10 volumes 0.32M sucrose using a Dounce glass homogenizer, 10 strokes. The suspension is centrifuged at 44,000×g for 15 minutes, and the pellet suspended in […] Hepes-KOH, pH 7.4, using a Polytron. The membranes are then stored at -80° C.
The assay tubes, in triplicate, receive 20 μl of 5 nM [^125 I]LSD, 20 μl of test compound (10^-9 M to 10^-5 M or 10 μM ketanserin for nonspecific binding), 40 μl of membrane suspension (1-5 μg protein/assay tube) in a final volume of 0.1 ml of 50 mM Tris- HCl, pH 7.6. Incubations are carried out at 37° C. for 60 minutes and terminated by addition of 2 ml ice-cold assay buffer end filtered through GF/B glass fiber filters (presoaked in 0.1% polyethyleneimine). Filters are washed twice with 5 ml of cold buffer and transferred to polystyrene tubes for radioactivity determination. Protein concentration was measured using the Bradford dye binding method.
Inhibition of [^125 I]LSD binding by a test compound is indicative of affinity for the 5HT2 receptor site. The molar concentration of a Compound which causes 50% inhibition of the binding of ligand is the IC50. The IC50 value is converted to the Ki value by the method of Cheng and Prusoff.[Cheng, Y. -C and Prusoff, Biochem. Pharmacol. 22:3099-3108, 1973].

Structure (SMILES): CN1CCC(=C2c3ccccc3CCc3sccc32)CC1 [pizotifen]
- 5-HT1C receptor antagonist activities [1]: potent 5-HT1C receptor antagonist activities (albeit nonselective)
- migraine prophylactic effectiveness [2]: well established as effective migraine prophylactic agents

Structure (SMILES): Clc1cccc(N2CCNCC2)c1 [m-chlorophenylpiperazine]
- inducing migraine headaches [3]: capable of inducing migraine headaches

Structure (SMILES): CC[C@@H](CO)NC(=O)[C@@H]1C=C2c3cccc4c3c(cn4C)C[C@H]2N(C)C1 [methysergide]
- 5-HT1C receptor antagonist activities [1]: potent 5-HT1C receptor antagonist activities (albeit nonselective)
- migraine prophylactic effectiveness [2]: well established as effective migraine prophylactic agents

Structure (SMILES): COc1ccc(CC(Oc2ccccc2OCc2ccccc2)C2=NCCN2)cc1 (stereo not drawn) [100,499, 2-[1-(2-benzyloxyphenoxy)-2-(4-methoxyphenyl)]ethylimidazoline]
- pIC50 [4]: 8.46

Structure (SMILES): c1ccc(CCCC(Oc2ccccc2OCc2ccccc2)C2=NCCN2)cc1 (stereo not drawn) [102,588, 2-[1-(2-benzyloxyphenoxy)-4-phenyl]butylimidazoline]
- pIC50 [4]: 6.78

Structure (SMILES): c1ccc(COc2ccccc2OC(Cc2ccccc2)C2=NCCN2)cc1 (stereo not drawn) [101,600, 2-[1-(2-benzyloxyphenoxy)-2-phenyl]ethylimidazoline]
- pIC50 [4]: 8.60

Structure (SMILES): c1ccc(CCOc2ccccc2OC(Cc2ccccc2)C2=NCCN2)cc1 (stereo not drawn) [101,623, 2-(1-[2-(2-phenylethoxy)phenoxy]-2-phenyl)ethylimidazoline]
- pIC50 [4]: 7.85
